Measured values taken from PubChem BioAssay (NCI).
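GI50 = concentration required for 50% inhibition of growth. TGI denotes the concentration required for complete inhibition of growth.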

Columns and labels:
Experiment in all cases: NCI anticancer screen, dose series, 384-well format
786-0 renal = test system: 786-0 renal
A498 renal = test system: A498 renal
A549 NSCLC = test system: A549 NSCLC
ACHN renal = test system: ACHN renal
BT-549 breast = test system: BT-549 breast
CAKI-1 renal = test system: CAKI-1 renal
CCRF-CEM leukemia = test system: CCRF-CEM leukemia
COLO 205 colon = test system: COLO 205 colon
DU-145 prostate = test system: DU-145 prostate
EKVX NSCLC = test system: EKVX NSCLC
HCC-2998 colon = test system: HCC-2998 colon
HCT-116 colon = test system: HCT-116 colon
HCT-15 colon = test system: HCT-15 colon
HL-60(TB) leukemia = test system: HL-60(TB) leukemia
HOP-62 NSCLC = test system: HOP-62 NSCLC
HOP-92 NSCLC = test system: HOP-92 NSCLC
HS 578T breast = test system: HS 578T breast
HT29 colon = test system: HT29 colon
IGROV1 ovarian = test system: IGROV1 ovarian
KM12 colon = test system: KM12 colon
LOX IMVI melanoma = test system: LOX IMVI melanoma
M14 melanoma = test system: M14 melanoma
MALME-3M melanoma = test system: MALME-3M melanoma
MCF7 breast = test system: MCF7 breast
MDA-MB-231 breast = test system: MDA-MB-231 breast
MDA-MB-435 melanoma = test system: MDA-MB-435 melanoma
MDA-MB-468 breast = test system: MDA-MB-468 breast
MOLT-4 leukemia = test system: MOLT-4 leukemia
NCI-H226 lung = test system: NCI-H226 lung
NCI-H23 lung = test system: NCI-H23 lung
NCI-H322M lung = test system: NCI-H322M lung
NCI-H460 NSCLC = test system: NCI-H460 NSCLC
NCI-H522 lung = test system: NCI-H522 lung
NCI/ADR-RES ovarian = test system: NCI/ADR-RES ovarian
OVCAR-3 ovarian = test system: OVCAR-3 ovarian
OVCAR-4 ovarian = test system: OVCAR-4 ovarian
OVCAR-5 ovarian = test system: OVCAR-5 ovarian
OVCAR-8 ovarian = test system: OVCAR-8 ovarian
PC-3 prostate = test system: PC-3 prostate
RPMI-8226 leukemia = test system: RPMI-8226 leukemia
RXF 393 renal = test system: RXF 393 renal
SF-268 CNS = test system: SF-268 CNS
SF-295 CNS = test system: SF-295 CNS
SF-539 CNS = test system: SF-539 CNS
SK-MEL-28 melanoma = test system: SK-MEL-28 melanoma
SK-MEL-5 melanoma = test system: SK-MEL-5 melanoma
SK-OV-3 ovarian = test system: SK-OV-3 ovarian
SN12C renal = test system: SN12C renal
SNB-19 CNS = test system: SNB-19 CNS
SNB-75 CNS = test system: SNB-75 CNS
SR leukemia = test system: SR leukemia
SW-620 colon = test system: SW-620 colon
T-47D breast = test system: T-47D breast
TK-10 renal = test system: TK-10 renal
U251 glioblastoma = test system: U251 glioblastoma
UACC-257 melanoma = test system: UACC-257 melanoma
UACC-62 melanoma = test system: UACC-62 melanoma
UO-31 renal = test system: UO-31 renal

With C=CC(=O)N1CCN(c2nc(=O)n(-c3c(C)ccnc3C(C)C)c3nc(-c4c(O)cccc4F)c(F)cc23)[C@@H](C)C1 as the compound, how does the GI50 (786-0 renal) read?
Its GI50 is 21.4 µM.

And the TGI (786-0 renal)?
The TGI was 44.4 µM.

What about the GI50 (A498 renal) of the same compound?
The GI50 was 31.1 µM.

And the TGI (A498 renal)?
Its TGI is greater than 82.8 µM.

And the GI50 (A549 NSCLC)?
Its GI50 is 32.5 µM.

And the TGI (A549 NSCLC)?
The TGI was greater than 85.6 µM.

And the GI50 (ACHN renal)?
Its GI50 is 30.2 µM.

And the TGI (ACHN renal)?
Its TGI is greater than 68.2 µM.

And the GI50 (BT-549 breast)?
The GI50 was 15.7 µM.

And the TGI (BT-549 breast)?
Its TGI is 35.2 µM.

What about the GI50 (CAKI-1 renal) of the same compound?
Its GI50 is 30.9 µM.

And the TGI (CAKI-1 renal)?
Its TGI is greater than 89.7 µM.

And the GI50 (CCRF-CEM leukemia)?
The GI50 was 18.8 µM.

And the TGI (CCRF-CEM leukemia)?
Its TGI is 34.2 µM.

What about the GI50 (COLO 205 colon) of the same compound?
The GI50 was 24.7 µM.

And the TGI (COLO 205 colon)?
The TGI was 58.8 µM.

And the GI50 (DU-145 prostate)?
The GI50 was 25.3 µM.

And the TGI (DU-145 prostate)?
The TGI was 74.7 µM.

What about the GI50 (EKVX NSCLC) of the same compound?
The GI50 was 37.1 µM.

And the TGI (EKVX NSCLC)?
Its TGI is greater than 100 µM.

What about the GI50 (HCC-2998 colon) of the same compound?
The GI50 was 15 µM.

And the TGI (HCC-2998 colon)?
The TGI was 29.6 µM.

What about the GI50 (HCT-116 colon) of the same compound?
The GI50 was 17.5 µM.

And the TGI (HCT-116 colon)?
Its TGI is 35.6 µM.

And the GI50 (HCT-15 colon)?
Its GI50 is 27.2 µM.

And the TGI (HCT-15 colon)?
Its TGI is greater than 65.3 µM.

What about the GI50 (HL-60(TB) leukemia) of the same compound?
Its GI50 is 19.8 µM.

And the TGI (HL-60(TB) leukemia)?
Its TGI is 35.5 µM.

And the GI50 (HOP-62 NSCLC)?
Its GI50 is 54.3 nM.

And the TGI (HOP-62 NSCLC)?
Its TGI is 26 µM.

What about the GI50 (HOP-92 NSCLC) of the same compound?
Its GI50 is 48.6 µM.

What about the TGI (HOP-92 NSCLC) of the same compound?
The TGI was greater than 100 µM.

What about the GI50 (HS 578T breast) of the same compound?
The GI50 was 13.9 µM.

And the TGI (HS 578T breast)?
The TGI was 35.1 µM.

And the GI50 (HT29 colon)?
The GI50 was 33.2 µM.

What about the TGI (HT29 colon) of the same compound?
Its TGI is greater than 100 µM.

And the GI50 (IGROV1 ovarian)?
The GI50 was 27 µM.

What about the TGI (IGROV1 ovarian) of the same compound?
Its TGI is 71 µM.

What about the GI50 (KM12 colon) of the same compound?
The GI50 was 31.5 µM.

What about the TGI (KM12 colon) of the same compound?
The TGI was greater than 75.8 µM.

What about the GI50 (LOX IMVI melanoma) of the same compound?
The GI50 was 16.6 µM.

And the TGI (LOX IMVI melanoma)?
The TGI was 31.8 µM.

And the GI50 (M14 melanoma)?
The GI50 was 32.1 µM.

What about the TGI (M14 melanoma) of the same compound?
Its TGI is greater than 79.9 µM.

And the GI50 (MALME-3M melanoma)?
The GI50 was 14.7 µM.

And the TGI (MALME-3M melanoma)?
Its TGI is 35.3 µM.

And the GI50 (MCF7 breast)?
Its GI50 is 36.9 µM.

What about the TGI (MCF7 breast) of the same compound?
Its TGI is greater than 100 µM.

What about the GI50 (MDA-MB-231 breast) of the same compound?
The GI50 was 24.3 µM.

What about the TGI (MDA-MB-231 breast) of the same compound?
The TGI was 57 µM.

What about the GI50 (MDA-MB-435 melanoma) of the same compound?
Its GI50 is 62.4 µM.

What about the TGI (MDA-MB-435 melanoma) of the same compound?
The TGI was greater than 100 µM.

And the GI50 (MDA-MB-468 breast)?
Its GI50 is 13 µM.

What about the TGI (MDA-MB-468 breast) of the same compound?
The TGI was 37.2 µM.

What about the GI50 (MOLT-4 leukemia) of the same compound?
Its GI50 is 9.94 µM.

And the TGI (MOLT-4 leukemia)?
Its TGI is 22.2 µM.

And the GI50 (NCI-H226 lung)?
Its GI50 is 20.5 µM.

What about the TGI (NCI-H226 lung) of the same compound?
The TGI was 52.2 µM.

What about the TGI (NCI-H23 lung) of the same compound?
Its TGI is 592 nM.

And the GI50 (NCI-H322M lung)?
The GI50 was 44.6 µM.

What about the TGI (NCI-H322M lung) of the same compound?
Its TGI is greater than 100 µM.

What about the GI50 (NCI-H460 NSCLC) of the same compound?
Its GI50 is 28.2 µM.

And the TGI (NCI-H460 NSCLC)?
Its TGI is 65.4 µM.

What about the GI50 (NCI-H522 lung) of the same compound?
Its GI50 is 21.1 µM.

What about the TGI (NCI-H522 lung) of the same compound?
The TGI was 43.2 µM.

What about the GI50 (NCI/ADR-RES ovarian) of the same compound?
Its GI50 is greater than 100 µM.

And the TGI (NCI/ADR-RES ovarian)?
The TGI was greater than 100 µM.

And the GI50 (OVCAR-3 ovarian)?
The GI50 was 22 µM.

What about the TGI (OVCAR-3 ovarian) of the same compound?
The TGI was 50.8 µM.

What about the GI50 (OVCAR-4 ovarian) of the same compound?
The GI50 was 43.8 µM.

And the TGI (OVCAR-4 ovarian)?
Its TGI is greater than 100 µM.

And the GI50 (OVCAR-5 ovarian)?
The GI50 was greater than 100 µM.

And the TGI (OVCAR-5 ovarian)?
Its TGI is greater than 100 µM.

And the GI50 (OVCAR-8 ovarian)?
The GI50 was 19.7 µM.

What about the TGI (OVCAR-8 ovarian) of the same compound?
Its TGI is 36.6 µM.

What about the GI50 (PC-3 prostate) of the same compound?
The GI50 was 35.9 µM.

And the TGI (PC-3 prostate)?
Its TGI is greater than 94.4 µM.

And the GI50 (RPMI-8226 leukemia)?
The GI50 was 16.6 µM.

And the TGI (RPMI-8226 leukemia)?
Its TGI is 32.5 µM.

And the GI50 (RXF 393 renal)?
The GI50 was 4.34 µM.

And the TGI (RXF 393 renal)?
The TGI was 14.3 µM.

What about the GI50 (SF-268 CNS) of the same compound?
The GI50 was 27.8 µM.

And the TGI (SF-268 CNS)?
The TGI was 79.8 µM.

And the GI50 (SF-295 CNS)?
Its GI50 is 33.4 µM.

What about the TGI (SF-295 CNS) of the same compound?
Its TGI is greater than 88.3 µM.

What about the GI50 (SF-539 CNS) of the same compound?
The GI50 was 17.4 µM.

And the TGI (SF-539 CNS)?
Its TGI is 33.3 µM.

What about the GI50 (SK-MEL-28 melanoma) of the same compound?
The GI50 was greater than 100 µM.

And the TGI (SK-MEL-28 melanoma)?
Its TGI is greater than 100 µM.

What about the GI50 (SK-MEL-5 melanoma) of the same compound?
The GI50 was 21.6 µM.

What about the TGI (SK-MEL-5 melanoma) of the same compound?
Its TGI is 46.5 µM.

What about the GI50 (SK-OV-3 ovarian) of the same compound?
The GI50 was 46.5 µM.

What about the TGI (SK-OV-3 ovarian) of the same compound?
The TGI was greater than 100 µM.

And the GI50 (SN12C renal)?
The GI50 was 50.3 µM.

And the TGI (SN12C renal)?
The TGI was greater than 100 µM.

What about the GI50 (SNB-19 CNS) of the same compound?
Its GI50 is 53.9 µM.

And the TGI (SNB-19 CNS)?
Its TGI is greater than 100 µM.

What about the GI50 (SNB-75 CNS) of the same compound?
Its GI50 is 54.2 µM.

And the TGI (SNB-75 CNS)?
Its TGI is 97.5 µM.

And the GI50 (SR leukemia)?
The GI50 was 6.68 µM.

And the TGI (SR leukemia)?
The TGI was 18.9 µM.

What about the GI50 (SW-620 colon) of the same compound?
Its GI50 is 36.8 µM.

What about the TGI (SW-620 colon) of the same compound?
Its TGI is greater than 100 µM.

And the GI50 (T-47D breast)?
The GI50 was greater than 81.3 µM.

What about the TGI (T-47D breast) of the same compound?
Its TGI is greater than 100 µM.

And the GI50 (TK-10 renal)?
The GI50 was 46.2 µM.

What about the TGI (TK-10 renal) of the same compound?
The TGI was greater than 100 µM.

And the GI50 (U251 glioblastoma)?
Its GI50 is 22 µM.

And the TGI (U251 glioblastoma)?
The TGI was 52.6 µM.

What about the GI50 (UACC-257 melanoma) of the same compound?
Its GI50 is 37.1 µM.

What about the TGI (UACC-257 melanoma) of the same compound?
The TGI was greater than 100 µM.

And the GI50 (UACC-62 melanoma)?
The GI50 was 43.5 µM.

What about the TGI (UACC-62 melanoma) of the same compound?
Its TGI is greater than 100 µM.

What about the GI50 (UO-31 renal) of the same compound?
The GI50 was 69.7 µM.

What about the TGI (UO-31 renal) of the same compound?
Its TGI is greater than 100 µM.
